{"source": "ChEMBL document CHEMBL4808209", "about": "(J Med Chem, 2021)", "key": {"[1]": {"target": "CYP2D6 (Homo sapiens, UniProt P10635)", "assay": "Inhibition of CYP2D6 in human liver microsomes using bufuralol as substrate substrate in presence of NADPH by LC-MS/MS analysis", "type": "ADME", "details": "human, liver microsomes, probe bufuralol; call rule not given here"}, "[2]": {"assay": "Solubility of the compound in simulated gastric fluid", "type": "physicochemical"}, "[3]": {"target": "Sodium-dependent serotonin transporter (Homo sapiens, UniProt P31645)", "assay": "Inhibition of serotonin transporter (unknown origin) at 0.1 to 1 uM", "type": "ADME", "details": "dose 0.1-1 µM"}, "[4]": {"target": "Gamma-aminobutyric acid receptor subunit alpha-1 (Homo sapiens, UniProt P14867)", "assay": "Inhibition of GABA-A alpha1 BDZ site (unknown origin) at 0.1 to 1 uM", "details": "dose 0.1-1 µM"}, "[5]": {"target": "Muscarinic acetylcholine receptor M1 (Homo sapiens, UniProt P11229)", "sequence (P11229 whole entry)": "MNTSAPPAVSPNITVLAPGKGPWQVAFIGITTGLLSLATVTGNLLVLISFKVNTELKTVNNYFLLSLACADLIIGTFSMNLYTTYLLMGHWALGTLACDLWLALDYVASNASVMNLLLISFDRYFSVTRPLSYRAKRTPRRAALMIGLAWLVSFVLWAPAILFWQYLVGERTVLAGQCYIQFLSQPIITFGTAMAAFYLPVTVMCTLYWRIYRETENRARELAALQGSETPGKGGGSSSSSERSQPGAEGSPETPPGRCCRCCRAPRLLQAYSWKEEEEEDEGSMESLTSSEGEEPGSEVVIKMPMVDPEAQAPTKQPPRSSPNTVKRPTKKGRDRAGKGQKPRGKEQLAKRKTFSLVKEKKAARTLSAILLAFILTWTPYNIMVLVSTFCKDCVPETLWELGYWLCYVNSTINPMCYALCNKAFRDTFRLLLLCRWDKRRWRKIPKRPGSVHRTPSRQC", "assay": "Inhibition of human muscarinic M1 receptor at 0.1 to 1 uM", "details": "dose 0.1-1 µM"}, "[6]": {"assay": "Inhibition of calcium channel, Type N (unknown origin) at 0.1 to 1 uM", "details": "human, dose 0.1-1 µM"}, "[7]": {"target": "CYP2C19 (Homo sapiens, UniProt P33261)", "assay": "Inhibition of CYP2C19 in human liver microsomes using s-mephenytoin as substrate substrate in presence of NADPH by LC-MS/MS analysis", "type": "ADME", "details": "human, liver microsomes, probe s-mephenytoin"}, "[8]": {"assay": "Clearance in Sprague-Dawley rat at 2 mg/kg, po or 1 mg/kg, iv administered as cassette dose measured after 24 hrs relative to hepatic blood flow", "type": "ADME, organism-based", "details": "in vivo"}, "[9]": {"target": "5-hydroxytryptamine receptor 3A (Homo sapiens, UniProt P46098)", "sequence (P46098 whole entry)": "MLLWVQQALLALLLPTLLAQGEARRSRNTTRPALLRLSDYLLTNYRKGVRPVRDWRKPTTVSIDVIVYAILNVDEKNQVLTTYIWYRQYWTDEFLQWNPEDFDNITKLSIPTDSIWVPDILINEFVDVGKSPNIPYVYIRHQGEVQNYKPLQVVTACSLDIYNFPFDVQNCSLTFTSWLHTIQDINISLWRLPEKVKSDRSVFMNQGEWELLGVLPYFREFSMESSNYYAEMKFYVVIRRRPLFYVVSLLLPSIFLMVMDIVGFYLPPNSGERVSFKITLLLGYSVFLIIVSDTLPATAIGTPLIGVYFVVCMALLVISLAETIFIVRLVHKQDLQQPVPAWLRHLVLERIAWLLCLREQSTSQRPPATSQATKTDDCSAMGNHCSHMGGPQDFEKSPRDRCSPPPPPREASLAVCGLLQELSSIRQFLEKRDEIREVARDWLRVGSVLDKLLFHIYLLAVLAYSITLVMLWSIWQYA", "assay": "Inhibition of 5HT3 receptor (unknown origin) at 0.1 to 1 uM", "details": "dose 0.1-1 µM"}, "[10]": {"assay": "Inhibition of human PKA at 0.1 to 1 uM", "details": "dose 0.1-1 µM"}, "[11]": {"assay": "Half life in Sprague-Dawley rat at 2 mg/kg, po or 1 mg/kg, iv administered as cassette dose measured after 24 hrs", "type": "ADME, organism-based", "details": "in vivo"}, "[12]": {"target": "Voltage-gated inwardly rectifying potassium channel KCNH2 (Homo sapiens, UniProt Q12809)", "assay": "Inhibition of human ERG at 0.1 to 1 uM", "details": "dose 0.1-1 µM"}, "[13]": {"target": "Alpha-2C adrenergic receptor (Homo sapiens, UniProt P18825)", "sequence (P18825 whole entry)": "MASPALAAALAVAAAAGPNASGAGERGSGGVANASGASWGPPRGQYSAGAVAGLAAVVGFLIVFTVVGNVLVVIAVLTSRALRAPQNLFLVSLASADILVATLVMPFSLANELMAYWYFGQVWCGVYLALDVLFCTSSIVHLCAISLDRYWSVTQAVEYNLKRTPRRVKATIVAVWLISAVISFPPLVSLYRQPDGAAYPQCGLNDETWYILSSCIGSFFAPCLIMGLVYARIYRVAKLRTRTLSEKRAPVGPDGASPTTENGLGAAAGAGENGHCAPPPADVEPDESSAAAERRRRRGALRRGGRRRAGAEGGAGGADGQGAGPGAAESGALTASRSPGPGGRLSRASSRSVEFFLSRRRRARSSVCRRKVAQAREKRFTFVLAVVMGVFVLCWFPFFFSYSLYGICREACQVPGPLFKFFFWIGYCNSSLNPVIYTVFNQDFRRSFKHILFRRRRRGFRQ", "assay": "Inhibition of human adrenergic alpha 2C receptor at 0.1 to 1 uM", "details": "dose 0.1-1 µM"}, "[14]": {"target": "5-hydroxytryptamine receptor 2A (Homo sapiens, UniProt P28223)", "assay": "Inhibition of 5HT2A receptor (unknown origin) at 0.1 to 1 uM", "details": "dose 0.1-1 µM"}, "[15]": {"target": "Sodium-dependent noradrenaline transporter (Homo sapiens, UniProt P23975)", "sequence (P23975 whole entry)": "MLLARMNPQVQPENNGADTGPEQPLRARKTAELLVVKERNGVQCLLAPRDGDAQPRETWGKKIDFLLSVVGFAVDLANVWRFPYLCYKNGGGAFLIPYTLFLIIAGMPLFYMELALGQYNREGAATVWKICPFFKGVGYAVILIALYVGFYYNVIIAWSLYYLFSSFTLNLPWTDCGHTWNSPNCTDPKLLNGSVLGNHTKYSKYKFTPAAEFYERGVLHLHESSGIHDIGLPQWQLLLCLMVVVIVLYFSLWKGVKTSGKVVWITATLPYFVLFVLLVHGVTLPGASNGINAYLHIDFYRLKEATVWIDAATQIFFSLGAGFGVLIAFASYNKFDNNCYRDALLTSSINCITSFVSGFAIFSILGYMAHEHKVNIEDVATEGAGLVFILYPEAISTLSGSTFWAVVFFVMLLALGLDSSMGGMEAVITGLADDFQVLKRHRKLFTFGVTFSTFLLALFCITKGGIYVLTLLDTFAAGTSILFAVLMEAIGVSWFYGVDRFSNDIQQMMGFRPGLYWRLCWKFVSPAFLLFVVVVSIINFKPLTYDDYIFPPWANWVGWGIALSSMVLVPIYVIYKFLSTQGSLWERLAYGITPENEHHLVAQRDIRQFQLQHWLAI", "assay": "Inhibition of norepinephrine transporter (unknown origin) at 0.1 to 1 uM", "type": "ADME", "details": "dose 0.1-1 µM"}, "[16]": {"assay": "Inhibition of calcium activated potassium channel (unknown origin) at 0.1 to 1 uM", "details": "human, dose 0.1-1 µM"}, "[17]": {"target": "Substance-P receptor (Homo sapiens, UniProt P25103)", "assay": "Inhibition of NK-1 (unknown origin) at 0.1 to 1 uM", "details": "dose 0.1-1 µM"}, "[18]": {"target": "D(1A) dopamine receptor (Homo sapiens, UniProt P21728)", "assay": "Inhibition of human dopamine D1 receptor at 0.1 to 1 uM", "details": "dose 0.1-1 µM"}, "[19]": {"assay": "Toxicity in SCID mouse xenografted with human KATO III stomach cancer cell line assessed as effect on boy weight at 0.03 to 1 mg/kg, po administered once daily for 10 days", "type": "organism-based", "details": "in vivo, 240 h, dose 0.03-1 mg/kg, time 10 day"}, "[20]": {"target": "Leukotriene B4 receptor 1 (Homo sapiens, UniProt Q15722)", "sequence (Q15722 whole entry)": "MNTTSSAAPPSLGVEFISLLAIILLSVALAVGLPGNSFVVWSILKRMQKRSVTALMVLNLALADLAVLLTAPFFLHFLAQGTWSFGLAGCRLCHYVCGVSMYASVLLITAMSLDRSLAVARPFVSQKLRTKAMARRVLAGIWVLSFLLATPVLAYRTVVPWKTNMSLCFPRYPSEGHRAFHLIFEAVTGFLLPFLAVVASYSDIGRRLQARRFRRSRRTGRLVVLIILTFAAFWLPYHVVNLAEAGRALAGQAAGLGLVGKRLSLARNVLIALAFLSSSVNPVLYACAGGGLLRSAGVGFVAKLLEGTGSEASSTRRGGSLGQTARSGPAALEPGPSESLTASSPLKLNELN", "assay": "Inhibition of LTB4 (unknown origin) at 0.1 to 1 uM", "details": "dose 0.1-1 µM"}, "[21]": {"test_system": "GABA-A receptor; anion channel", "assay": "Inhibition of GABA A receptor (unknown origin) at 0.1 to 1 uM", "type": "protein-complex assay", "details": "human, dose 0.1-1 µM"}, "[22]": {"target": "Sigma intracellular receptor 2 (Homo sapiens, UniProt Q5BJF2)", "assay": "Inhibition of sigma 2 receptor (unknown origin) at 0.1 to 1 uM", "details": "dose 0.1-1 µM"}, "[23]": {"assay": "Inhibition of sodium channel site 2 (unknown origin) at 0.1 to 1 uM", "details": "human, dose 0.1-1 µM"}, "[24]": {"assay": "Protein binding in human plasma assessed as free fraction measured after 2 hrs by LC-MS/MS analysis", "type": "ADME, cell-free"}, "[25]": {"target": "B2 bradykinin receptor (Homo sapiens, UniProt P30411)", "sequence (P30411 whole entry)": "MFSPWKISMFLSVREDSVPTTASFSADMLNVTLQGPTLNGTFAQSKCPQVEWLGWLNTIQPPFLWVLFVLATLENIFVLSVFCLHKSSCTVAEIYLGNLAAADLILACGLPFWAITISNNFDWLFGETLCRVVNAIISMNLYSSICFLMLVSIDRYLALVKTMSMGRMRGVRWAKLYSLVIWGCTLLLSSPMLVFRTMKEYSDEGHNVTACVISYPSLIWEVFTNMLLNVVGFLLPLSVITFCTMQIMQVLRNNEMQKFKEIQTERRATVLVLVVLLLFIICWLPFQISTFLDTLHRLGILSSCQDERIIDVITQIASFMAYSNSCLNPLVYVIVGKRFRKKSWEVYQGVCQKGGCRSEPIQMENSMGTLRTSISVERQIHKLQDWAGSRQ", "assay": "Inhibition of BK2 (unknown origin) at 0.1 to 1 uM", "details": "dose 0.1-1 µM"}, "[26]": {"target": "5-hydroxytryptamine receptor 1A (Homo sapiens, UniProt P08908)", "assay": "Inhibition of human 5HT1A receptor at 0.1 to 1 uM", "details": "dose 0.1-1 µM"}, "[27]": {"target": "Alpha-1A adrenergic receptor (Homo sapiens, UniProt P35348)", "sequence (P35348 whole entry)": "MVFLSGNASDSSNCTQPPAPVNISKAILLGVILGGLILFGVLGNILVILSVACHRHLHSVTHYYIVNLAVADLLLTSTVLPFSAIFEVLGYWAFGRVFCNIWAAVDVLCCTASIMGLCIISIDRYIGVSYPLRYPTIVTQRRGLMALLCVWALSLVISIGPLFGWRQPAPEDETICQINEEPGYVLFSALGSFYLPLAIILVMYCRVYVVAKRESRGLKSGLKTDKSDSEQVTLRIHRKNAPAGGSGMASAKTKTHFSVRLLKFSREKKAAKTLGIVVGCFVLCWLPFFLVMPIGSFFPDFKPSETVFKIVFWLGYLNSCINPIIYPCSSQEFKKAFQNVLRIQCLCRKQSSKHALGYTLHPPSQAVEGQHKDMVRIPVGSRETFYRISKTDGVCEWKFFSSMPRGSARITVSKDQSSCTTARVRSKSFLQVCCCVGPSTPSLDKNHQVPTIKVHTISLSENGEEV", "assay": "Inhibition of adrenergic alpha 1A receptor (unknown origin) at 0.1 to 1 uM", "details": "dose 0.1-1 µM"}, "[28]": {"assay": "Half life in cynomolgus monkey at 2 mg/kg, po or 0.5 mg/kg, iv administered as cassette dose measured after 24 hrs", "type": "ADME, organism-based, Macaca fascicularis", "details": "in vivo"}, "[29]": {"target": "CYP1A2 (Homo sapiens, UniProt P05177)", "sequence (P05177 whole entry)": "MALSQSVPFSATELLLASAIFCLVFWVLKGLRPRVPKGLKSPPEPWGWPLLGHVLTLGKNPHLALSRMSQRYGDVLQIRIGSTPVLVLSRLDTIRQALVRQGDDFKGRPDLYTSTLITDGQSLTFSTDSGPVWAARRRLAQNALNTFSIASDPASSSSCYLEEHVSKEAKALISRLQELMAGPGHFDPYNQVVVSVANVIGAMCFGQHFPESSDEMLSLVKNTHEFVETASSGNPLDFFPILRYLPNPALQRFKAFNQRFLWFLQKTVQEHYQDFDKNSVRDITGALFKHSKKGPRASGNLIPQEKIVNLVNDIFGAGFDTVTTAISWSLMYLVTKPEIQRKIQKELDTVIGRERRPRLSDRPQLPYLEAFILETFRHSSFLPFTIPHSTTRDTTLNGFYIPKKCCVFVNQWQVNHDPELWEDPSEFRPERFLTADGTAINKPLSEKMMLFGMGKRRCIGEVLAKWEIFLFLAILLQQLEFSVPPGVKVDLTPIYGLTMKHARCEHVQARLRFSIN", "assay": "Inhibition of CYP1A2 in human liver microsomes using 7-ethoxyresorufin as substrate substrate in presence of NADPH by LC-MS/MS analysis", "type": "ADME", "details": "human, liver microsomes, probe 7-ethoxyresorufin"}, "[30]": {"target": "5-hydroxytryptamine receptor 7 (Homo sapiens, UniProt P34969)", "assay": "Inhibition of human 5HT7 receptor at 0.1 to 1 uM", "details": "dose 0.1-1 µM"}, "[31]": {"target": "Voltage-gated L-type calcium channel (Homo sapiens, UniProt Q13936+Q13698+Q01668+O60840)", "assay": "Inhibition of calcium channel, Type L (unknown origin) at 0.1 to 1 uM", "type": "protein assay", "details": "dose 0.1-1 µM"}, "[32]": {"target": "CYP2B6 (Homo sapiens, UniProt P20813)", "sequence (P20813 whole entry)": "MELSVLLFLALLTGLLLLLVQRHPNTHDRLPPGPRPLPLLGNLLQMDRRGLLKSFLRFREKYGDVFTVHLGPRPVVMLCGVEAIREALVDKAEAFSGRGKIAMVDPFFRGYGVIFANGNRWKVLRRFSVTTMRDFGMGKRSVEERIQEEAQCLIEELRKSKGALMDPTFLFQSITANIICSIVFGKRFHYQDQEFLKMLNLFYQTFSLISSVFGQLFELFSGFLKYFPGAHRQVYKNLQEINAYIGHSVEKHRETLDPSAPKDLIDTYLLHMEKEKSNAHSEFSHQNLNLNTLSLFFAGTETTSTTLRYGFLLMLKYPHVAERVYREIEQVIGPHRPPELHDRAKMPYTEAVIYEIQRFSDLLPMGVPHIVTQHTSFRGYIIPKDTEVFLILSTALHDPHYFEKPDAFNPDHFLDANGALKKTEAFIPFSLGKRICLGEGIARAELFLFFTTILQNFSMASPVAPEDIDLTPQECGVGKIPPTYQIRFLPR", "assay": "Inhibition of CYP2B6 in human liver microsomes using bupropion as substrate substrate in presence of NADPH by LC-MS/MS analysis", "type": "ADME", "details": "probe bupropion"}, "[33]": {"target": "D(3) dopamine receptor (Homo sapiens, UniProt P35462)", "assay": "Inhibition of dopamine D3 receptor (unknown origin) at 0.1 to 1 uM", "details": "dose 0.1-1 µM"}, "[34]": {"assay": "Inhibition of Glutamate kainate site receptor (unknown origin) at 0.1 to 1 uM", "type": "ADME", "details": "human, dose 0.1-1 µM"}, "[35]": {"assay": "AUC in cynomolgus monkey at 2 mg/kg, po or 0.5 mg/kg, iv administered as cassette dose measured after 24 hrs", "type": "ADME, organism-based, Macaca fascicularis", "parameters": "dose 2 mg/kg, time 24 hrs", "details": "in vivo"}, "[36]": {"test_system": "Neuronal acetylcholine receptor", "assay": "Inhibition of neuronal nicotinic receptor (unknown origin) at 0.1 to 1 uM", "type": "protein-complex assay", "details": "human, dose 0.1-1 µM"}, "[37]": {"target": "GABA-B receptor (Homo sapiens, UniProt Q9UBS5+O75899)", "assay": "Inhibition of GABA-B receptor (unknown origin) at 0.1 to 1 uM", "type": "protein-complex assay", "details": "dose 0.1-1 µM"}, "[38]": {"target": "Cysteinyl leukotriene receptor 1 (Homo sapiens, UniProt Q9Y271)", "assay": "Inhibition of LTD4 (unknown origin) at 0.1 to 1 uM", "details": "dose 0.1-1 µM"}, "[39]": {"target": "Beta-2 adrenergic receptor (Homo sapiens, UniProt P07550)", "assay": "Inhibition of human adrenergic beta 2 receptor at 0.1 to 1 uM", "details": "dose 0.1-1 µM"}, "[40]": {"target": "Neuropeptide Y receptor type 2 (Homo sapiens, UniProt P49146)", "sequence (P49146 whole entry)": "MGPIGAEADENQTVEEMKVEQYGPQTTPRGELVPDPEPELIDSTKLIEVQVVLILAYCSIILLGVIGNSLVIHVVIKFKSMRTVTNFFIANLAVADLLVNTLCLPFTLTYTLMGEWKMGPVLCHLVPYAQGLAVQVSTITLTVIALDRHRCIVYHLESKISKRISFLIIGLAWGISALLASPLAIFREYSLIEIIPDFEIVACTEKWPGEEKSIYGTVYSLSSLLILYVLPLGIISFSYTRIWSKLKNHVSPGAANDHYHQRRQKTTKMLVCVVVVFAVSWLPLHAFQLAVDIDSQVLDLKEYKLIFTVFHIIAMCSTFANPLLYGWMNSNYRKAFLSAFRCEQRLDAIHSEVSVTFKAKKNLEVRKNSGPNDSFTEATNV", "assay": "Inhibition of human NPY2 at 0.1 to 1 uM", "details": "dose 0.1-1 µM"}, "[41]": {"target": "Thromboxane A2 receptor (Homo sapiens, UniProt P21731)", "sequence (P21731 whole entry)": "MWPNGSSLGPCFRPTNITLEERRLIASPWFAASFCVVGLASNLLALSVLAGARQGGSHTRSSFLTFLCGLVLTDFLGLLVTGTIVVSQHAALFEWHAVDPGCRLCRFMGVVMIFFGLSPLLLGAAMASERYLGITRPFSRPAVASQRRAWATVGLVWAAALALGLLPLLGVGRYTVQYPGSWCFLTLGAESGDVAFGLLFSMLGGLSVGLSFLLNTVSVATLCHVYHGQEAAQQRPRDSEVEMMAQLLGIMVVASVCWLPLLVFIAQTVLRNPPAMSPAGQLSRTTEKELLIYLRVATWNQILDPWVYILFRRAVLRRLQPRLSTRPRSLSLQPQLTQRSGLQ", "assay": "Inhibition of human thromboxane A2 at 0.1 to 1 uM", "details": "dose 0.1-1 µM"}, "[42]": {"test_system": "Glutamate [NMDA] receptor", "assay": "Inhibition of Glutamate receptor (unknown origin) at 0.1 to 1 uM", "type": "protein-complex assay", "details": "human, dose 0.1-1 µM"}}, "data": [{"smiles": "CCN1C(=O)N(c2c(F)c(OC)cc(OC)c2F)Cc2cnc3[nH]c(CN4CCOCC4)cc3c21", "note": "[PEMIGATINIB]", "values": [{"measurement": "IC50", "setting": "[1]", "value": "> 25", "unit": "µM"}, {"measurement": "solubility", "setting": "[2]", "value": "> 6000", "unit": "µg/mL"}, {"measurement": "inhibition (INH)", "setting": "[3]", "value": "Not Active"}, {"measurement": "inhibition (INH)", "setting": "[4]", "value": "Not Active"}, {"measurement": "inhibition (INH)", "setting": "[5]", "value": "Not Active"}, {"measurement": "inhibition (INH)", "setting": "[6]", "value": "Not Active"}, {"measurement": "IC50", "setting": "[7]", "value": "> 25", "unit": "µM"}, {"measurement": "CL", "setting": "[8]", "value": 31, "unit": "%"}, {"measurement": "inhibition (INH)", "setting": "[9]", "value": "Not Active"}, {"measurement": "inhibition (INH)", "setting": "[10]", "value": "Not Active"}, {"measurement": "half-life", "setting": "[11]", "value": 4, "unit": "h"}, {"measurement": "inhibition (INH)", "setting": "[12]", "value": "Not Active"}, {"measurement": "inhibition (INH)", "setting": "[13]", "value": "Not Active"}, {"measurement": "inhibition (INH)", "setting": "[14]", "value": "Not Active"}, {"measurement": "inhibition (INH)", "setting": "[15]", "value": "Not Active"}, {"measurement": "inhibition (INH)", "setting": "[16]", "value": "Not Active"}, {"measurement": "inhibition (INH)", "setting": "[17]", "value": "Not Active"}, {"measurement": "inhibition (INH)", "setting": "[18]", "value": "Not Active"}, {"measurement": "Activity", "setting": "[19]", "value": "Non-Toxic"}, {"measurement": "inhibition (INH)", "setting": "[20]", "value": "Not Active"}, {"measurement": "inhibition (INH)", "setting": "[21]", "value": "Not Active"}, {"measurement": "inhibition (INH)", "setting": "[22]", "value": "Not Active"}, {"measurement": "inhibition (INH)", "setting": "[23]", "value": "Not Active"}, {"measurement": "fraction unbound at 2 h", "setting": "[24]", "value": 0.11}, {"measurement": "inhibition (INH)", "setting": "[25]", "value": "Not Active"}, {"measurement": "inhibition (INH)", "setting": "[26]", "value": "Not Active"}, {"measurement": "inhibition (INH)", "setting": "[27]", "value": "Not Active"}, {"measurement": "half-life", "setting": "[28]", "value": 10, "unit": "h"}, {"measurement": "IC50", "setting": "[29]", "value": "> 25", "unit": "µM"}, {"measurement": "inhibition (INH)", "setting": "[30]", "value": "Not Active"}, {"measurement": "inhibition (INH)", "setting": "[31]", "value": "Not Active"}, {"measurement": "IC50", "setting": "[32]", "value": "> 25", "unit": "µM"}, {"measurement": "inhibition (INH)", "setting": "[33]", "value": "Not Active"}, {"measurement": "inhibition (INH)", "setting": "[34]", "value": "Not Active"}, {"measurement": "AUC at 24 h", "setting": "[35]", "value": 6.19, "unit": "µM·h"}, {"measurement": "inhibition (INH)", "setting": "[36]", "value": "Not Active"}, {"measurement": "inhibition (INH)", "setting": "[37]", "value": "Not Active"}, {"measurement": "inhibition (INH)", "setting": "[38]", "value": "Not Active"}, {"measurement": "inhibition (INH)", "setting": "[39]", "value": "Not Active"}, {"measurement": "inhibition (INH)", "setting": "[40]", "value": "Not Active"}, {"measurement": "inhibition (INH)", "setting": "[41]", "value": "Not Active"}, {"measurement": "inhibition (INH)", "setting": "[42]", "value": "Not Active"}]}]}
